This is an account of results in patent publication US20060148858A1, “1, 2-Azole derivatives with hypoglycemic and hypolipidemic activity” (priority 2002, published 2006).

One series concerns the target T1, PPARδ-RXRα heterodimer (Homo sapiens, UniProt Q03181).
T1 construct: expressed in transfected cells; host or cells: COS-1
T1 sequence (Q03181 1-441): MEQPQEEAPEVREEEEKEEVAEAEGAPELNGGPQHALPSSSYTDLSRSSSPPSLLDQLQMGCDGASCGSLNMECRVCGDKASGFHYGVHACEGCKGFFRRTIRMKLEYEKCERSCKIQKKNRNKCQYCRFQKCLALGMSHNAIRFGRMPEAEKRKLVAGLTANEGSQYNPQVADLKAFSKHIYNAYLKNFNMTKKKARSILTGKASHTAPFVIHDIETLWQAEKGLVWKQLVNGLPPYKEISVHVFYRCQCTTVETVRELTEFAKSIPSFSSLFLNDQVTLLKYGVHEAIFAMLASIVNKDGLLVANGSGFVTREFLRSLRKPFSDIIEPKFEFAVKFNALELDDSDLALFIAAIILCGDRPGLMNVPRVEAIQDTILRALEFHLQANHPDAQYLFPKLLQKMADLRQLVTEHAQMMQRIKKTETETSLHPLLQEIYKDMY
T1 sequence (P19793 1-462 partner): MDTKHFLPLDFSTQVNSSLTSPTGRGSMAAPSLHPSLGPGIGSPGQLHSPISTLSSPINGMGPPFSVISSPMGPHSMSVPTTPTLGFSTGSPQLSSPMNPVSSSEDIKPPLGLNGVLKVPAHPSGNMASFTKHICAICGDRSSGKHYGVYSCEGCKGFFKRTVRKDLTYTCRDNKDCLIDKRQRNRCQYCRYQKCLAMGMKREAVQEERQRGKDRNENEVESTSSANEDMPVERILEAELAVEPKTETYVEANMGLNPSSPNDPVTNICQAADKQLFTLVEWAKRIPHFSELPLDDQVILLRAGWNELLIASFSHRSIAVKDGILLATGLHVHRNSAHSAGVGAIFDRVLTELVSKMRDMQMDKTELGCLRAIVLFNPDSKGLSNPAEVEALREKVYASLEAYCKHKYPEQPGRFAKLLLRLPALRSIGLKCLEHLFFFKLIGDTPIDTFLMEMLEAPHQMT
Nature of the series: PPARδ-RXRα heterodimer ligand activity, luciferase reporter in COS-1 transformant (Test Example 4). It counts as cell-based. Conditions: COS-1 transformant (hPPARδ, hRXRα, reporter), 36-48 hours, concentration for 50% of the maximum fold induction. As to the method: The transformant obtained in Reference Example 9a was suspended in DMEM medium (produced by Life Technologies, Inc., USA) containing 0.1% fatty acid-free bovine serum albumin (BSA) (produced by Wako Pure Chemical Industries, Ltd.), and inoculate to each well of a 96-well white plate (produced by Corning Costar Corporation, USA) by 80 μl at 1×10^4 cells/well. Then the test compound (20 μl) was added and cultured at 37° C. under 5% CO2 for 36-48 hours. After removing the medium from the 96-well white plate, 40 μl of PIKKAGENE LT 7.5 (produced by Wako Pure Chemical Industries, Ltd.) diluted twice with HBSS (HANKS' BALANCED SALT SOLUTION)(produced by BIO WHITTAKER Inc., USA), was added. After stirring, the luciferase activity was determined using 1420 ARVO Multilabel Counter (produced by PerkinElmer Inc., USA).
A fold induction was calculated based on the luciferase activity of each test compound by taking the luciferase activity in the non-treatment group as 1. The values of the test compound concentration and the fold induction were analyzed using PRISM (produced by GraphPad Software Inc. USA) to calculate the EC50 values, the effective concentration of a test compound for 50% of the maximum fold induction.
COS-1 cells were inoculated to a 150 cm^2 cell culture flask (produced by Corning Costar Corporation, USA) at the density of 5×10^6 cells/50 ml, and cultured at 37° C. under 5% CO2 conditions for 24 hours. Subsequently, a DNA was introduced into the cell under the condition shown below using Lipofectamine (produced by Invitrogen, USA).
First, Lipofectamine (125 μl), PLUS Reagent (100 μl, produced by Invitrogen, USA), plasmid pMCMVneo-hPPARδ (2.5 μg) obtained in Reference Example 3a, plasmid pMCMVneo-hRXRα (2.5 μg) obtained in Reference Example 4a and reporter plasmid pGL3-4ERPP-TK neo (5 μg) obtained in Reference Example 5a, and pRL-tk (5 μg, produced by Promega, USA) were mixed with opti-MEM (5 ml, produced by Invitrogen, USA) to give a transfection mixture.
Then, the above-mentioned transfection mixture and opti-MEM (20 ml) were added to COS-1 cells washed with opti-MEM, and the cells were cultured at 37° C. under 5% CO2 conditions for 3 hours. DMEM medium (25 ml, produced by Life Technologies, Inc., USA) containing 0.1% fatty acid-free bovine serum albumin (BSA) (produced by Wako Pure Chemical Industries, Ltd.) was added to the obtained COS-1 cells, and the cells were cultured at 37° C. under 5% CO2 conditions for 18-24 hours to give a transformant.
(A reporter such as luciferase makes a cellular process visible.)

`Cc1cc(OCc2cn(-c3ccc(C(F)(F)F)cn3)nc2C)ccc1CCC(=O)O` [Example 123, 3-[2-methyl-4-({3-methyl-1-[5-(trifluoromethyl)-2-pyridyl]-1H-pyrazol-4-yl}methoxy)phenyl]propionic acid] had a melting point of 144 to 145 °C. The EC50 on PPARδ-RXRα heterodimer was 2.9 nM.

On to `O=C(O)Cc1cccc(OCCCc2cn(-c3ccc(C(F)(F)F)cn3)nc2-c2ccccc2)c1` [Example 124, [3-(3-{3-phenyl-1-[5-(trifluoromethyl)-2-pyridyl]-1H-pyrazol-4-yl}propoxy)phenyl]acetic acid], for which the melting point lay in the range of 132 to 133 °C. The compound also came in with an EC50 at PPARδ-RXRα heterodimer of 2.4 nM.

For the compound `CCOc1cc(OCCCc2cn(-c3ccc(C(F)(F)F)cn3)nc2C)ccc1CCC(=O)O` [Example 126, 3-[2-ethoxy-4-(3-{3-methyl-1-[5-(trifluoromethyl)-2-pyridyl]-1H-pyrazol-4-yl}propoxy)phenyl]propionic acid], the melting point is 129 to 130 °C. The EC50 at PPARδ-RXRα heterodimer amounted to 2.2 nM.

The compound `Cc1nn(-c2ccc(C(F)(F)F)cn2)cc1CCCOc1cccc(CC(=O)O)c1` [Example 127, [3-(3-{3-methyl-1-[5-(trifluoromethyl)-2-pyridyl]-1H-pyrazol-4-yl}propoxy)phenyl]acetic acid] gave a melting point of 96 to 97 °C. The compound further had an EC50 on PPARδ-RXRα heterodimer of 3.9 nM.

In turn, `COc1cc(CCC(=O)O)ccc1OCCCc1cn(-c2ccc(C(F)(F)F)cn2)nc1C` [Example 129, 3-[3-methoxy-4-(3-{3-methyl-1-[5-(trifluoromethyl)-2-pyridyl]-1H-pyrazol-4-yl}propoxy)phenyl]propionic acid] showed a melting point of 136 to 137 °C. At PPARδ-RXRα heterodimer, a half-maximal response (EC50) required 4.9 nM.

For the compound `CCOc1nn(-c2ccc(C(F)(F)F)cn2)cc1CCCOc1cc(CC(=O)O)ccc1OC` [Example 131, [3-(3-{3-ethoxy-1-[5-(trifluoromethyl)-2-pyridyl]-1H-pyrazol-4-yl}propoxy)-4-methoxyphenyl]acetic acid], the melting point lay in the range of 142 to 143 °C. This compound showed an EC50 at PPARδ-RXRα heterodimer of 2.7 nM.

`CCOc1nn(-c2ccc(C(F)(F)F)cn2)cc1CCCOc1c(CC(=O)O)cccc1OC` [Example 146, [2-(3-{3-ethoxy-1-[5-(trifluoromethyl)-2-pyridyl]-1H-pyrazol-4-yl}propoxy)-3-methoxyphenyl]acetic acid]: the melting point is 122 to 123 °C. The compound also had an EC50 on PPARδ-RXRα heterodimer of 5.8 nM.

Compound `CCOc1nn(-c2ccc(C(F)(F)F)cn2)cc1CCCOc1ccc(CCC(=O)O)cc1OC` [Example 150, 3-[4-(3-{3-ethoxy-1-[5-(trifluoromethyl)-2-pyridyl]-1H-pyrazol-4-yl}propoxy)-3-methoxyphenyl]propanoic acid] showed a melting point of 131 to 132 °C. Also, a half-maximal effect on PPARδ-RXRα heterodimer (EC50) was put at 2.7 nM.

The compound `CCOc1cc(OCCCc2cn(-c3ccc(C(F)(F)F)cn3)nc2OC)ccc1CCC(=O)O` [Example 152, 3-[2-ethoxy-4-(3-{3-methoxy-1-[5-(trifluoromethyl)-2-pyridyl]-1H-pyrazol-4-yl}propoxy)phenyl]propanoic acid] registered a melting point of 145 to 146 °C. Besides, a half-maximal effect on PPARδ-RXRα heterodimer (EC50) was put at 9.9 nM.

Consider `CCCOc1nn(-c2ccc(C(F)(F)F)cn2)cc1CCCOc1ccc(CCC(=O)O)c(OCC)c1` [Example 153, 3-[2-ethoxy-4-(3-{3-propoxy-1-[5-(trifluoromethyl)-2-pyridyl]-1H-pyrazol-4-yl}propoxy)phenyl]propanoic acid], for which the melting point lay within 112 to 113 °C. This compound gave an EC50 on PPARδ-RXRα heterodimer of 1.9 nM.

Compound `CCOc1cc(OCCCc2cn(-c3ccc(C(F)(F)F)cn3)nc2OC(C)C)ccc1CCC(=O)O` [Example 154, 3-[2-ethoxy-4-(3-{3-isopropoxy-1-[5-(trifluoromethyl)-2-pyridyl]-1H-pyrazol-4-yl}propoxy)phenyl]propanoic acid] showed a melting point of 128 to 129 °C. For the same compound, the EC50 on PPARδ-RXRα heterodimer was 1.5 nM.

What is called EC50 is the concentration at which the effect is half-maximal. Read a low EC50 as higher potency in that assay. As a reminder, the melting point is the temperature, or range, at which the solid turns liquid.
